Active and inactive are the calls of the source. The calls are words filed in the database; no cut-off is given here.
Tests used:
[1] = target: T1, Polyunsaturated fatty acid 5-lipoxygenase (Homo sapiens) (UniProt P09917); test: Inhibition of recombinant human 5-LOX expressed in Escherichia coli at 20 uM using arachidonic acid as substrate by UV-vis spectrophotometric method relative to control
T1 sequence (whole entry): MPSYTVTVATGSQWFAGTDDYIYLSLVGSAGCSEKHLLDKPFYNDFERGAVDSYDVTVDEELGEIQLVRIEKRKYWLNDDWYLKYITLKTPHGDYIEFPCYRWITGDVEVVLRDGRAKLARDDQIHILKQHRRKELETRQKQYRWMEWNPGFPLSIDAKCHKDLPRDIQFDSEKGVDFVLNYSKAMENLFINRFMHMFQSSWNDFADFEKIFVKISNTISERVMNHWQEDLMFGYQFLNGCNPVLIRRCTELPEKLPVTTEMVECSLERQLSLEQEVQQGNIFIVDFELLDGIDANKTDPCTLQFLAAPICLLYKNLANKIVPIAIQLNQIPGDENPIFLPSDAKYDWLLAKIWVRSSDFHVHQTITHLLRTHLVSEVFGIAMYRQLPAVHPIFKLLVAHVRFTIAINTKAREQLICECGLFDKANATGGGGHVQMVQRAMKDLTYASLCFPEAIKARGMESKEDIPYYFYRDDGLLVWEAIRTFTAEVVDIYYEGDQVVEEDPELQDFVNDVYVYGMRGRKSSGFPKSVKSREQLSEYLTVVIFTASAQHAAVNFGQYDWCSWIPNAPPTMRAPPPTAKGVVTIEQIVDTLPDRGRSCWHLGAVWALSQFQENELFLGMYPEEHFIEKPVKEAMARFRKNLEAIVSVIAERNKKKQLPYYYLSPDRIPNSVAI

[2] = target: T2, Polyunsaturated fatty acid 5-lipoxygenase (Homo sapiens, UniProt P09917); test: Inhibition of human 5-LOX using arachidonic acid as substrate measured after 10 mins by ELISA
T2 sequence (P09917 whole entry): T1 sequence (whole entry)

[3] = target: T1, Polyunsaturated fatty acid 5-lipoxygenase (Homo sapiens); test: Inhibition of recombinant human 5-LOX pseudoperoxidase activity expressed in Escherichia coli BL21 assessed as compound redox activity by measuring reduction in absorption at 10 uM using 13(S)-HpODE as substrate by UV-vis spectrophotometric method relative to control; parameters: scale not given: the % may be the effect or the level left
[4] = Antioxidant activity assessed as DPPH radical scavenging activity at 20 uM incubated for 30 mins under dark condition relative to control; assay type: functional
[5] = target: T2, Polyunsaturated fatty acid 5-lipoxygenase; test: Inhibition of recombinant human 5-LOX expressed in Escherichia coli using arachidonic acid as substrate by UV-vis spectrophotometric method

Row | Compound | inhibition [1] | further results
1 | Oc1cc(O)cc(/C=C/c2ccc(O)cc2O)c1 [OXYRESVERATROL] |  | IC50 [2]: 18.5 µM
2 | COc1ccc(/C=C/C=C/C(=O)N2CCCCC2)cc1 | 42.6% | 
3 | COc1cc(/C=C/C=C/C(=O)N2CCCCC2)cc(OC)c1 | 64.9% | 
4 | O=C(/C=C/C=C/c1ccc(O)cc1)N1CCCCC1 | 44.4% | 
5 | CN(C)c1ccc(/C=C/C=C/C(=O)N2CCCCC2)cc1 | 13.4% | 
6 | COc1ccc(/C=C/C=C/C(=O)N2CCCCC2)cc1OC | 51.9% | 
7 | O=C(/C=C/C=C/c1ccccc1)N1CCCCC1 | 36.3% | 
8 | COc1cc(/C=C/C=C/C(=O)N2CCCCC2)cc(OC)c1OC | 66.7% | 
9 | O=C(/C=C/C=C/c1ccc(O)c(O)c1)N1CCCCC1 | 82.8% | Activity [3]: 57.4%; Activity [4]: 76.8%; IC50 [5]: 2100 nM
10 | O=C(/C=C/C=C/c1ccc(F)cc1)N1CCCCC1 | 48.7% | 
11 | O=C1O[C@H]([C@@H](O)CO)C(O)=C1O |  | Activity [4]: 80.1%
12 | O=C(/C=C/C=C/c1ccc2c(c1)OCO2)N1CCCCC1 | 47.5% | 
13 | COc1cc(OC)c(/C=C/C=C/C(=O)N2CCCCC2)c(OC)c1 | 77.1% | Activity [3]: inactive; Activity [4]: 3.6%
14 | COC1=C(OC)C(=O)C(CCCCCCCCCCO)=C(C)C1=O [IDEBENONE] |  | IC50 [2]: > 10 µM
15 | O=C(/C=C/C=C/C=C/c1ccc(O)c(O)c1)N1CCCCC1 | 30.3% | 
16 | COc1ccc(/C=C/C=C/C=C/C(=O)N2CCCCC2)cc1 | 1.08% | 
17 | COc1cc(/C=C/c2ccc(O)cc2)cc(OC)c1 [PTEROSTILBENE] |  | IC50 [2]: 9.32 µM
18 | CC(=O)Oc1ccc(/C=C/C=C/C(=O)N2CCCCC2)cc1 | 18.3% | 
19 | O=C(/C=C/C=C/c1cc(O)c(O)c(O)c1)N1CCCCC1 | 82.5% | Activity [3]: 50.8%; Activity [4]: 71.3%; IC50 [5]: 2300 nM
20 | COc1cc(/C=C/C=C/C(=O)N2CCCCC2)ccc1O | 55.5% | 

Now from value to molecule, other results behind:

Row | inhibition [1] | Compound | further results
21 | 36% | COc1ccc(/C=C/C=C/C(=O)N2CCCCC2)c(OC)c1OC | 
22 | 16.1% | O=C(/C=C/C=C/c1ccc(OC2CCCC2)cc1)N1CCCCC1 | 
23 | 14.5% | O=C(/C=C/C=C/c1ccc(Cl)cc1)N1CCCCC1 | 
24 | 27.4% | CN(C)c1ccc(/C=C/C=C/C=C/C(=O)N2CCCCC2)cc1 | 
25 | 11.8% | CSc1ccc(/C=C/C=C/C(=O)N2CCCCC2)cc1 | 
26 | 32.7% | COc1cc(/C=C/C=C/C(=O)N2CCCCC2)cc(OC)c1O | 
27 | 76% | O=C(/C=C/C=C/C=C/c1ccc2c(c1)OCO2)N1CCCCC1 | Activity [3]: inactive; Activity [4]: 0.9%
28 | 39.9% | O=C(/C=C/c1ccc2c(c1)OCO2)N1CCCCC1 | 
29 | 55.2% | O=C(/C=C/c1ccc(O)c(O)c1)N1CCCCC1 | 

— ChEMBL document CHEMBL4411316, “Design, synthesis and identification of novel coumaperine derivatives for inhibition of human 5-LOX: Antioxidant, pseudoperoxidase and docking studies” (Bioorg Med Chem, 2019)
